In patent US10030036B2, “Method and dyes for detecting and destroying cancer cells” (Lahjavida, LLC, priority 2009, dated 2018):

Test: near infrared fluorescent spectral properties
Type: physicochemical
Text: Some of these compounds in formula 1-8 and the compounds shown in Scheme 1 have variable water solubility, near infrared fluorescent spectral properties suitable for in-vivo tissue imaging (e.g. MHI-148 has λmax absorption 780 nm and high intensity λmax emission 800 nm (FIG. 1)), and have been tested to have similar activities in near infrared fluorescent imaging of tumor cells and inhibiting tumor cell growth in vitro, and permit selective destruction of any gold labeled cancer cells via radiofrequency treatment. The solubility of the labeled gold particles may be controlled by the dye molecules attached to the surface of gold particles or by additional solubilization groups attached to the gold particle surface as it is described by the literature or by prior art. Biodistribution of these gold particles are determined by the molecules attached to the gold particle surface and particle size.

λmax absorption: 780 nm | λmax emission (high intensity): 800 nm
SMILES: CC1(C)C(/C=C/C2=C(Cl)C(=C/C=C3\Cc4ccccc4N3CCCCCC(=O)O)/CCC2)=[N+](CCCCCC(=O)O)c2ccccc21 [MHI-148]
